Source: PubChem BioAssay AID1259407 (Chemical Carcinogenesis Research Information System (CCRIS), 2018)
Active and inactive are the calls of the source. The rule behind the calls is not given here.

System: CCRIS mutagenicity, Ames/micronucleus/aberration tests
Assay: CCRIS mutagenicity studies
[1] = Test System: AMES SALMONELLA TYPHIMURIUM, Strain/Indicator: TA98, Metabolic Activation: NONE, Method: STANDARD PLATE
[2] = Test System: AMES SALMONELLA TYPHIMURIUM, Strain/Indicator: TA98, Metabolic Activation: RAT, LIVER, S-9, AROCLOR 1254, Method: STANDARD PLATE
[3] = Test System: AMES SALMONELLA TYPHIMURIUM, Strain/Indicator: TA100, Metabolic Activation: NONE, Method: STANDARD PLATE
[4] = Test System: AMES SALMONELLA TYPHIMURIUM, Strain/Indicator: TA100, Metabolic Activation: RAT, LIVER, S-9, AROCLOR 1254, Method: STANDARD PLATE
[5] = Test System: AMES SALMONELLA TYPHIMURIUM, Strain/Indicator: TA1535, Metabolic Activation: NONE, Method: STANDARD PLATE
[6] = Test System: AMES SALMONELLA TYPHIMURIUM, Strain/Indicator: TA1535, Metabolic Activation: RAT, LIVER, S-9, AROCLOR 1254, Method: STANDARD PLATE
[7] = Test System: AMES SALMONELLA TYPHIMURIUM, Strain/Indicator: TA1537, Metabolic Activation: NONE, Method: STANDARD PLATE
[8] = Test System: AMES SALMONELLA TYPHIMURIUM, Strain/Indicator: TA1537, Metabolic Activation: RAT, LIVER, S-9, AROCLOR 1254, Method: STANDARD PLATE
[9] = Test System: AMES SALMONELLA TYPHIMURIUM, Strain/Indicator: TA1538, Metabolic Activation: NONE, Method: STANDARD PLATE
[10] = Test System: AMES SALMONELLA TYPHIMURIUM, Strain/Indicator: TA1538, Metabolic Activation: RAT, LIVER, S-9, AROCLOR 1254, Method: STANDARD PLATE
[11] = Test System: MOUSE LYMPHOMA, Strain/Indicator: L5178Y (TK+/TK-), Metabolic Activation: NONE, Method: SUSPENSION/PLATE
[12] = Test System: MOUSE LYMPHOMA, Strain/Indicator: L5178Y (TK+/TK-), Metabolic Activation: RAT, LIVER, S-9, AROCLOR 1254, Method: SUSPENSION/PLATE
[13] = Test System: AMES SALMONELLA TYPHIMURIUM, Strain/Indicator: TA100, Metabolic Activation: NONE, Method: PREINCUBATION

## Oc1ccc2c(c1)OCO2
Test System: AMES SALMONELLA TYPHIMURIUM, Strain/Indicator: TA98, Metabolic Activation: HAMSTER, LIVER, S-9, AROCLOR 1254, Method: STANDARD PLATE
  mutagenic call: inactive; negative
[1]
  mutagenic call: inactive; negative
[2]
  mutagenic call: inactive; negative
Test System: AMES SALMONELLA TYPHIMURIUM, Strain/Indicator: TA100, Metabolic Activation: HAMSTER, LIVER, S-9, AROCLOR 1254, Method: STANDARD PLATE
  mutagenic call: inactive; negative
[3]
  mutagenic call: inactive; negative
[4]
  mutagenic call: inactive; negative
Test System: AMES SALMONELLA TYPHIMURIUM, Strain/Indicator: TA1535, Metabolic Activation: HAMSTER, LIVER, S-9, AROCLOR 1254, Method: STANDARD PLATE
  mutagenic call: inactive; negative
[5]
  mutagenic call: inactive; negative
[6]
  mutagenic call: inactive; negative
Test System: AMES SALMONELLA TYPHIMURIUM, Strain/Indicator: TA1537, Metabolic Activation: HAMSTER, LIVER, S-9, AROCLOR 1254, Method: STANDARD PLATE
  mutagenic call: inactive; negative
[7]
  mutagenic call: inactive; negative
[8]
  mutagenic call: inactive; negative
Test System: AMES SALMONELLA TYPHIMURIUM, Strain/Indicator: TA1538, Metabolic Activation: HAMSTER, LIVER, S-9, AROCLOR 1254, Method: STANDARD PLATE
  mutagenic call: inactive; negative
[9]
  mutagenic call: inactive; negative
[10]
  mutagenic call: inactive; negative
[11]
  mutagenic call: active; positive
[12]
  mutagenic call: active; positive
Test System: Mouse lymphoma, Strain/Indicator: L5178Y (tk+/tk-), Metabolic Activation: None, Method: Suspension/plate
  mutagenic call: active; positive
Test System: Mouse lymphoma, Strain/Indicator: L5178Y (tk+/tk-), Metabolic Activation: Rat, Liver, S-9, Aroclor 1254, Method: Suspension/plate
  mutagenic call: active; positive

## CO[C@@]12[C@H](CO)C3=C(C(=O)C(C)=C(N)C3=O)N1C[C@@H]1N[C@@H]12
Test System: CHINESE HAMSTER V-79, Strain/Indicator: V-79/6-THIOGUANINE, Metabolic Activation: NONE, Method: FLASK ASSAY
  mutagenic call: active; positive

## CC(C)(C)c1cc(-c2ccccc2)ccc1[N+](=O)[O-]
[1]
  mutagenic call: inactive; negative
Test System: AMES SALMONELLA TYPHIMURIUM, Strain/Indicator: TA98, Metabolic Activation: S-9, Method: STANDARD PLATE
  mutagenic call: inactive; negative
[3]
  mutagenic call: inactive; negative
Test System: AMES SALMONELLA TYPHIMURIUM, Strain/Indicator: TA100, Metabolic Activation: S-9, Method: STANDARD PLATE
  mutagenic call: inactive; negative

## CCCc1cc2ccccc2c2ccc3c(c12)C1OC1C(O)C3O (stereo unspecified)
[13]
  mutagenic call: inactive; negative

## O[C@H]1C=Cc2cccc3c2[C@@]1(O)c1ccccc1-3
Test System: AMES SALMONELLA TYPHIMURIUM, Strain/Indicator: TM677, Metabolic Activation: NONE, Method: PREINCUBATION
  mutagenic call: inactive; negative
Test System: AMES SALMONELLA TYPHIMURIUM, Strain/Indicator: TM677, Metabolic Activation: RAT, LIVER, POSTMITOCHONDRIAL SUPERNATANT, AROCLOR 1254, Method: PREINCUBATION
  mutagenic call: inactive; negative

## Cc1cccc(C)c1NO
[13]
  mutagenic call: active; positive
Test System: AMES SALMONELLA TYPHIMURIUM, Strain/Indicator: TA100, Metabolic Activation: RAT, LIVER, S-9, PCB, Method: PREINCUBATION
  mutagenic call: active; positive

## CCCCOCCOCCO
Test System: AMES SALMONELLA TYPHIMURIUM, Strain/Indicator: TA97, Metabolic Activation: HAMSTER, LIVER, S-9, AROCLOR 1254 (10 OR 30%), Method: PREINCUBATION
  mutagenic call: inactive; negative
Test System: AMES SALMONELLA TYPHIMURIUM, Strain/Indicator: TA97, Metabolic Activation: NONE, Method: PREINCUBATION
  mutagenic call: inactive; negative
Test System: AMES SALMONELLA TYPHIMURIUM, Strain/Indicator: TA97, Metabolic Activation: RAT, LIVER, S-9, AROCLOR 1254 (10 OR 30%), Method: PREINCUBATION
  mutagenic call: inactive; negative
Test System: AMES SALMONELLA TYPHIMURIUM, Strain/Indicator: TA98, Metabolic Activation: HAMSTER, LIVER, S-9, AROCLOR 1254 (10 OR 30%), Method: PREINCUBATION
  mutagenic call: inactive; negative
Test System: AMES SALMONELLA TYPHIMURIUM, Strain/Indicator: TA98, Metabolic Activation: NONE, Method: PREINCUBATION
  mutagenic call: inactive; negative
[1]
  mutagenic call: inactive; negative
Test System: AMES SALMONELLA TYPHIMURIUM, Strain/Indicator: TA98, Metabolic Activation: RAT, LIVER, S-9, AROCLOR 1254 (10 OR 30%), Method: PREINCUBATION
  mutagenic call: inactive; negative
[2]
  mutagenic call: inactive; negative
Test System: AMES SALMONELLA TYPHIMURIUM, Strain/Indicator: TA100, Metabolic Activation: HAMSTER, LIVER, S-9, AROCLOR 1254 (10 OR 30%), Method: PREINCUBATION
  mutagenic call: inactive; negative
[13]
  mutagenic call: inactive; negative
[3]
  mutagenic call: inactive; negative
Test System: AMES SALMONELLA TYPHIMURIUM, Strain/Indicator: TA100, Metabolic Activation: RAT, LIVER, S-9, AROCLOR 1254 (10 OR 30%), Method: PREINCUBATION
  mutagenic call: inactive; negative
[4]
  mutagenic call: inactive; negative
Test System: AMES SALMONELLA TYPHIMURIUM, Strain/Indicator: TA1535, Metabolic Activation: HAMSTER, LIVER, S-9, AROCLOR 1254 (10 OR 30%), Method: PREINCUBATION
  mutagenic call: inactive; negative
Test System: AMES SALMONELLA TYPHIMURIUM, Strain/Indicator: TA1535, Metabolic Activation: NONE, Method: PREINCUBATION
  mutagenic call: inactive; negative
[5]
  mutagenic call: inactive; negative
Test System: AMES SALMONELLA TYPHIMURIUM, Strain/Indicator: TA1535, Metabolic Activation: RAT, LIVER, S-9, AROCLOR 1254 (10 OR 30%), Method: PREINCUBATION
  mutagenic call: inactive; negative
[6]
  mutagenic call: inactive; negative
[7]
  mutagenic call: inactive; negative
[8]
  mutagenic call: inactive; negative
[9]
  mutagenic call: inactive; negative
[10]
  mutagenic call: inactive; negative
Test System: CHINESE HAMSTER OVARY, Strain/Indicator: CHO-K1-BH4 (HGPRT)/6-THIOGUANINE, Metabolic Activation: NONE
  mutagenic call: inactive; negative
Test System: CHINESE HAMSTER OVARY, Strain/Indicator: CHO-K1-BH4 (HGPRT)/THIOGUANINE, Metabolic Activation: RAT, LIVER, S-9, AROCLOR 1254
  mutagenic call: inactive; negative
[11]
  mutagenic call: active; positive
[12]
  mutagenic call: inactive; negative
Test System: UDS RAT HEPATOCYTES, Strain/Indicator: THY INCORP, Metabolic Activation: NONE, Method: AUTORADIOGRAPHY
  mutagenic call: inactive; negative
